Measured values reported in patent US20090291934A1, “Method for decomposing an allergen” (Shinshu TLO Co., Ltd., priority 2003, published 2009).

How the values were obtained:
guinea pig skin [1] = assay: Toxicity experiment with rays in guinea pig (Morikawa et al. method); assay type: in vivo, guinea pig (Crj; Hartley); settings: 0.03 mL of 0.05% 8-methoxypsoralen, UV, all spread parts
Procedure: In the comparative group of the medium, the clipped backs of the guinea pigs were open spread by 0.03 mL of dimethylsulfoxide.
As the positive comparative group, the clipped backs of the guinea pigs were open spread by 0.03 mL of 0.05% 8-methoxypsoralen. After 30 minutes, they were exposed to ultraviolet rays (about 11.2 Joules/cm^2). The reactions on the skins were evaluated at 24 and 48 hours after exposing to rays.

[2] = system: fibroblasts derived from Chinese hamster lung (CHL/IU cell); assay: Experiment on chromosome aberration by using mammalian cells; assay type: cell-based; settings: positive comparative group, short time
Procedure: The experiment on chromosome aberration was examined as follows. The experiment doses of the test material were determined by the inhibition experiment of increasing cells. As a result of the inhibition experiment of increasing cells, the concentration of test material in 50% inhibition experiment of increasing cells was 5.0 mg/mL or more in −S9mix method treating in a short time. And the concentration thereof was 0.840 mg/mL in +S9mix method treating in a short time.
As the negative comparative, the non-treating group and the comparative group of the medium were prepared, and as the positive comparative, the mitomycin C (0.05 μg/mL)-treating group was prepared.
Under this experiment, colcemid (available from GIBCO/Lot No. 1125546) was added to laboratory dishes for chromosome specimens to the last concentration of 0.2 μg/mL at 2 hours before making specimens so that cell divisions were stopped in the middle of the division period. After 2 hours, the culture solutions in the laboratory dishes were moved into a conical bottom tube. […] Furthermore, the laboratory dishes prepared for the cell increasing rate were fixed and stained in the same method as the inhibition experiment of increasing cells described above, and the cell increasing rate was measured. […]

guinea pig skin [3] = settings: sensitized with 0.1% DNCB, induced by 0.1% DNCB, 48 hours after inducing
guinea pig skin [4] = assay: Sensitization experiment with rays in guinea pig skin (Adjuvant and Strip method); assay type: in vivo, guinea pig (Crj; Hartley); settings: sensitized with 5% 6-MC
Procedure: The procedures were repeated for 5 days and the guinea pigs were sensitized with rays.
In the comparative group of the medium, the guinea pigs were injected with to sensitize and induced by dimethylsulfoxide. […] As the positive comparative group, the guinea pigs were injected with 5% 6-methylcoumarin (6-MC) to sensitize, and induced by 1% 6-MC.

Tick antigen Derf II = biological target: T1, Tick antigen Derf II (Dermatophagoides farinae, UniProt Q00855); assay: Two-dimensional electrophoresis of tick allergen with and without Fe-Pc-COOK; assay type: biochemical; settings: Derf II sol. with 0.1 or 0.5 w/v % Fe-Pc-COOK (A) vs tick allergen only (B), silver stain
T1 construct: purchased ASAHI BREWERIES, LTD
T1 sequence (Q00855 18-146): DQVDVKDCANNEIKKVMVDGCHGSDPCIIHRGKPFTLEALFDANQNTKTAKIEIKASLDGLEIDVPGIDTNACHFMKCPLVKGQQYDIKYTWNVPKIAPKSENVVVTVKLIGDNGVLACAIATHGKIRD
From the text: Tick antigen Derf II (available from ASAHI BREWERIES, LTD.) was chosen between the allergens, and we compared electrophoresis of the tick allergen containing iron phthalocyanine tetracarboxylic acid with that of the allergen only.
Iron phthalocyanine tetracarboxylic acid potassium salt (Fe-Pc-COOK) aqueous solution and Derf II solution, which appropriate concentrations (w/v %) were mentioned in Table 4, were mixed with swelling stock solution containing IPG (Immobilized pH Gradient) buffer (8 mol/L Urea, 2 w/v % CHAPS, 2% IPG Buffer, appropriate amount of Bromophenol blue, and distilled water) to prepare experimental solutions of preparing examples 1-4 in Table 4.
Whereas Derf II solution was mixed with swelling stock solution containing IPG buffer to prepare experimental solutions of comparative preparing examples 1-4 in Table 4.
One-dimensional electrophoresis gel films (Strip) of Strip pH4-7 and Strip pH 3-10.5 were prepared, soaked in each experimental solution containing appropriate amount of silicon oil for preventing dry, and treated for 10 hours. After being pulled up and washed, each Strip was subjected to one-dimensional electrophoresis containing silicon oil for preventing dry for 16 hours. […]

rabbit eye mucosa = assay: Irritation experiment on rabbit eye mucosa; assay type: in vivo, rabbit (Japanese White); settings: for irritation on the rabbit eye mucosa (Kay and Calandra classification): 100 mg powder
Procedure: Male rabbits at the age of 10 weeks (Japanese White, Kb1:JW(SPF)) were prepared for a washed group (n=3) and a non-washed group (n=3). After pre-bred for 7 days, the rabbits were confirmed normality about changes of body weight and health condition. On the preceding day, they were confirmed about normality of eyes macroscopically and no injury of cornea by fluoresceine staining (fluor-paper, Lot No. 3990849 available from Wyeth-Ayerest Laboratories, USA) using slitlamp (type SL-5: available from Kowa Company, Ltd.) to prepare for experiment.
100 mg of iron phthalocyanine tetracarboxylic acid powder, which was screened through a mesh having 300 μm of aperture once, was put into right conjunctiva of each rabbit, and upper and lower eyelids were gently kept closed for about one second. In the washed group, to remove powder, the conjunctiva was washed with 230-330 mL of lukewarm water at 30 seconds after putting to remove the powder. The left conjunctiva of each rabbit wasn't treated in both groups. The cornea, iris and the conjunctiva in both groups were compared with non-treated eye as reference at 1, 24, 48 and 72 hours after putting. […] The observation results were scored following Draize scoring criteria (Appendix 3), and the irritation was evaluated following Kay and Calandra classification (Appendix 4).

rats = assay: Toxicity experiment by oral injection of solution dissolving the decomposer to rats (for once)
Procedure: They were divided into each group according to their body weights measured before housed by a continuous stratified sampling method. Extra rats caused by the method were excluded from the experiment and euthanized.
Following the medical toxicity test guideline, the amount of injection was determined 2000 mg/kg, technical upper limit of oral injection. A comparative group, which a comparative material of purified water in the Japanese Pharmacopoeia was injected, was also prepared. 10 male rats and 10 female rats were divided into two groups respectively.
Their health conditions and life or death were observed continuously before the injection of the solution, at 5, 15, 30 minutes, 1, 2, and 4 hours after the injection, and once a day as from the following day. They were weighed before the injection of the solution, and at 9:00-12:00 on 1, 3, 7, 10, 14th day after the injection. After all the observations, their organs and tissues in heads, chests and abdomens were researched whether normal or not.

COc1c2occc2cc2ccc(=O)oc12 [8-methoxypsoralen]
skin action score (guinea pig skin [1]): 4

CN(C)N=O [DMN]
appearance frequency of cells whose chromosomes were abnormal structurally ([2]; +S9mix method): 37.5%

O=[N+]([O-])c1ccc(Cl)c([N+](=O)[O-])c1 [DNCB, 2,4-dinitrochlorobenzene]
positive rate (guinea pig skin [3]): 100%

Cc1ccc2oc(=O)ccc2c1 [Example 6-MC, 6-methylcoumarin]
erythema score (guinea pig skin [4]; induced by 1% 6-MC and exposed to ultraviolet rays): 2-4 | evaluation of sensitization with rays (guinea pig skin [4]; induced by 1% 6-MC, all guinea pigs): positive

CO[C@@]12[C@H](COC(N)=O)C3=C(C(=O)C(C)=C(N)C3=O)N1C[C@@H]1N[C@@H]12 [MMC, mitomycin C]
appearance frequency of cells whose chromosomes were abnormal structurally ([2]; -S9mix method): 16%

Iron phthalocyanine tetracarboxylic acid potassium salt
effect on tick allergen spots in two-dimensional electrophoresis gel (Tick antigen Derf II): Disappearance of the spots between pH 5-6

iron phthalocyanine tetracarboxylic acid
irritation on the rabbit eye mucosa (Kay and Calandra classification) (rabbit eye mucosa; non-washed group): moderately irritating | irritation on the rabbit eye mucosa (Kay and Calandra classification) (rabbit eye mucosa; washed group (washed 30 seconds after putting)): practically nonirritating | time by which reaction of the conjunctiva disappeared (rabbit eye mucosa; non-washed group): ≤ 10 days | time by which reactions of the cornea and the iris disappeared (rabbit eye mucosa; non-washed group, after putting): ≤ 72 h | time by which slight red conjunctiva disappeared (rabbit eye mucosa; washed group, after putting): ≤ 24 h | death during the experiment (rats; 2000 mg/kg oral once, observed 14 days): no male and female rat | minimum lethal dose (rats; oral once, male and female rats): ≥ 2000 mg/kg
